By % inhibition is commonly meant the percentage by which the read-out fell short of the control. Read a high % inhibition as a response far below the control. For orientation: IC50 means the concentration needed to halve the response being measured.

The values below come from article PMC6378217, “The lysyl oxidase like 2/3 enzymatic inhibitor, PXS‐5153A, reduces crosslinks and ameliorates fibrosis” (Journal of Cellular and Molecular Medicine, 2018).

Data set [1] deals with Glutamate, NMDA, Phencyclidine. The data set can be described thus: Eurofins Hit Profiling Screen. The data set is classed as binding. To be noted: 10 μmol/L.
Data set [2] deals with Potassium Channel hERG (Homo sapiens, UniProt Q12809). The data set can be described thus: Eurofins Hit Profiling Screen. To be noted: 10 μmol/L. It is filed as binding.
Potassium Channel hERG, sequence (Q12809 whole entry): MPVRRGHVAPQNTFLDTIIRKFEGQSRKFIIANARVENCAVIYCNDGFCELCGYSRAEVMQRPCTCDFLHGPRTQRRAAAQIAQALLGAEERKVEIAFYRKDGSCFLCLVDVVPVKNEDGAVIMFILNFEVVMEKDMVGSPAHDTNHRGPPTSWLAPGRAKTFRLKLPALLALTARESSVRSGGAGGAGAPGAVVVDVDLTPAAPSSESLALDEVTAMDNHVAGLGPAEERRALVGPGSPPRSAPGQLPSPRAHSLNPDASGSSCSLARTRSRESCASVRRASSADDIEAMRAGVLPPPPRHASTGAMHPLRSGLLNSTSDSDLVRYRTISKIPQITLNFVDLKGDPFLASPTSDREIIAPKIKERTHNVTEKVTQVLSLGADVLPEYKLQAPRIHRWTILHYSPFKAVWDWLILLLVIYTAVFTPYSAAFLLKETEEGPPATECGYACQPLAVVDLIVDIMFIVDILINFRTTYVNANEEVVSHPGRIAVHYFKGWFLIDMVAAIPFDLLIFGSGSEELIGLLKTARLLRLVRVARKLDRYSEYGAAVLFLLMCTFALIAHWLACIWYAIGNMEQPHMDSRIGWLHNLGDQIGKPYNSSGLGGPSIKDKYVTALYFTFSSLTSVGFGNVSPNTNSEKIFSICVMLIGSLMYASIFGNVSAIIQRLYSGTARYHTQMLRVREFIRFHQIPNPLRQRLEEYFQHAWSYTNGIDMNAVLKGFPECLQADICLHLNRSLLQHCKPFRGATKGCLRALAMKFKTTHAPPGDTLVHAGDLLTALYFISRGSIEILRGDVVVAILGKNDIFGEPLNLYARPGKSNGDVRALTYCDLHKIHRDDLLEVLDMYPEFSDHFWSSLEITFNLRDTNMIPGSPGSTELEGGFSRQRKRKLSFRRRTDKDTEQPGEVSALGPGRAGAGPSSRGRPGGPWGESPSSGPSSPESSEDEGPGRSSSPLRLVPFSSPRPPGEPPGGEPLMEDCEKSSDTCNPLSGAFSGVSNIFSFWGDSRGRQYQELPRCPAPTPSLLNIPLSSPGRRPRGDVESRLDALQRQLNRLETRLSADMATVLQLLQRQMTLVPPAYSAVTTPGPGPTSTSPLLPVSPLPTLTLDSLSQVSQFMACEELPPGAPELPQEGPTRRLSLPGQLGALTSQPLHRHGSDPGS
For data set [3], the target named is Cannabinoid CB1 (Homo sapiens, UniProt P21554). The data set can be described thus: Eurofins Hit Profiling Screen. The data set is classed as binding. To be noted: 10 μmol/L.
Cannabinoid CB1, sequence (P21554 whole entry): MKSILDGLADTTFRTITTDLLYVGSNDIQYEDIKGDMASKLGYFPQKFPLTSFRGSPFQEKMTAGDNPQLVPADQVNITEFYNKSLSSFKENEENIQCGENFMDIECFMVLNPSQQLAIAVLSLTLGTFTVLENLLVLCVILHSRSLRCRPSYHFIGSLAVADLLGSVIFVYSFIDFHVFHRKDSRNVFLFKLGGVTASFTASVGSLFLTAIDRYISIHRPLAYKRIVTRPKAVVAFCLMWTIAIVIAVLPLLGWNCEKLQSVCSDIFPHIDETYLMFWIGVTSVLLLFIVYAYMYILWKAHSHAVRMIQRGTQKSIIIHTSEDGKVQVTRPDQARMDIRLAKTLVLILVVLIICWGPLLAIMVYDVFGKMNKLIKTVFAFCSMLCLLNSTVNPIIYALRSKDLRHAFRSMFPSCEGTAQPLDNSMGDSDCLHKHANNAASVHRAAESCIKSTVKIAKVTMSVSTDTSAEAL
The target in data set [4] is T1, Recombinant rat LOXL2 (Rattus norvegicus, UniProt B5DF27).
T1 construct: made in house; host or cells: HEK-293 clones provided by Dr. Fernando Rodríguez Pascual
T1 sequence (B5DF27 26-776): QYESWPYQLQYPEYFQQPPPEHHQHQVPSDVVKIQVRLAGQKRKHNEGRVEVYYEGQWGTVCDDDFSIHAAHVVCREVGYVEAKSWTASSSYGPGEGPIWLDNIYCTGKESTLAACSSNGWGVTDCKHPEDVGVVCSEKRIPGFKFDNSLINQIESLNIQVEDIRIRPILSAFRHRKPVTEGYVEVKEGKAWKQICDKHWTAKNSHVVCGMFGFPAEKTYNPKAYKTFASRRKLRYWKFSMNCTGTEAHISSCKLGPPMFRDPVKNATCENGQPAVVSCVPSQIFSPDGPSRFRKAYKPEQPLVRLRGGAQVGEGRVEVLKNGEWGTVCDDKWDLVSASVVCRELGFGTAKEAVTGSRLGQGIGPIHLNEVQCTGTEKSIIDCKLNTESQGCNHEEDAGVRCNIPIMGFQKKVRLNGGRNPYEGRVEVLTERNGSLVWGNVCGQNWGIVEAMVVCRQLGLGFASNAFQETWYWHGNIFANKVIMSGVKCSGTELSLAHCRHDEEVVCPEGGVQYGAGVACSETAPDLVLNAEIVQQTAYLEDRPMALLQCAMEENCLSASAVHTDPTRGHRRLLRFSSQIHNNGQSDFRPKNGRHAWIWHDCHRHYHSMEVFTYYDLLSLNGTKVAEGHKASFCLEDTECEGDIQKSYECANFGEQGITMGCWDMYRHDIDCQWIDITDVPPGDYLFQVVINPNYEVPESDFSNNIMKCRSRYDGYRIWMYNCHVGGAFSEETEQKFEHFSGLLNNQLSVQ
The data set can be described thus: Amplex-Red fluorometric enzymatic activity assay, recombinant rat LOXL2. It is filed as biochemical. The conditions noted are these: 30 minute pre-incubation; average of at least three experiments. Here is the method:
(§1) The measurement of the enzymatic activity of all lysyl oxidase family members was based on the detection of hydrogen peroxide with an Amplex‐Red oxidation assay, as described in Zhou et al26 Recombinant human semicarbazide sensitive amine oxidase (SSAO/VAP1), diamine oxidase (DAO) and monoamine oxidases A and B (MAO‐A and MAO‐B) assays were performed as previously described.27 For detailed enzymatic procedures, see supporting information.
(§2) The measurement of the enzymatic activity of all lysyl oxidase family members was based on the detection of hydrogen peroxide with an Amplex-Red oxidation assay, as described in Zhou et al.[1]; miniaturised in 384 well format, with the appropriate combination of substrate and assay buffer for each individual enzyme. After a 30 minute pre-incubation of the enzyme at 37 °C with the test compound (or with different incubation times for the time-dependency assay), one volume of reaction mixture containing 120 μM Amplex Red (AR) (Life Technologies), 1.5 U/mL horseradish peroxidase (HRP) (Sigma-Aldrich) and the specific substrate was added to each sample. The relative fluorescence units (RFU) were then measured every 2.5 minutes for 30 minutes at 37°C, excitation 565 nm and emission 590, on a BMG Clariostar Microplate Reader. […]

Data set [5] has as its target Adrenergic α1B (Rattus norvegicus, UniProt P15823). The data set can be described thus: Eurofins Hit Profiling Screen. The data set is classed as binding. The conditions noted are these: 10 μmol/L.
Data set [6] has as its target T2, Recombinant human LOXL1 (Homo sapiens, UniProt Q08397).
T2 construct: made in house
The experiment in a line: Amplex-Red fluorometric enzymatic activity assay, recombinant human LOXL1. The data set is classed as biochemical. The conditions noted are these: 30 minute pre-incubation; average of at least three experiments. The protocol:
as §1, §2

In data set [7] the target is Muscarinic M2 (Homo sapiens, UniProt P08172). The data set can be described thus: Eurofins Hit Profiling Screen. It is filed as binding. The conditions noted are these: 10 μmol/L.
Muscarinic M2, sequence (P08172 whole entry): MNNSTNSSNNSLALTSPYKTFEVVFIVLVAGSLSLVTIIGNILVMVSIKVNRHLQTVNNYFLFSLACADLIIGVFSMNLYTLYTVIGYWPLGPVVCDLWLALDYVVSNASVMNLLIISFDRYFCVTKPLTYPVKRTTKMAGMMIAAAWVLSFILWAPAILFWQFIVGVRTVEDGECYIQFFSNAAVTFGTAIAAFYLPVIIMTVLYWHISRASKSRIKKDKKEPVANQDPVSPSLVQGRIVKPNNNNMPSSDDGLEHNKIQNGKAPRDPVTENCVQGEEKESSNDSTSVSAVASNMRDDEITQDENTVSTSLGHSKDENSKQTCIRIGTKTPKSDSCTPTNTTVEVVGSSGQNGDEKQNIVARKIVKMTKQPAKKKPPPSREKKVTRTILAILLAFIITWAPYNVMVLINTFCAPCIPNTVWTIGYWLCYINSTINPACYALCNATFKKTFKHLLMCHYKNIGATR
Data set [8] concerns Rolipram. The experiment in a line: Eurofins Hit Profiling Screen. To be noted: 10 μmol/L. It is filed as binding.
Data set [9] deals with T3, LOXL2 (Homo sapiens, UniProt Q9Y4K0).
T3 sequence (Q9Y4K0 26-774): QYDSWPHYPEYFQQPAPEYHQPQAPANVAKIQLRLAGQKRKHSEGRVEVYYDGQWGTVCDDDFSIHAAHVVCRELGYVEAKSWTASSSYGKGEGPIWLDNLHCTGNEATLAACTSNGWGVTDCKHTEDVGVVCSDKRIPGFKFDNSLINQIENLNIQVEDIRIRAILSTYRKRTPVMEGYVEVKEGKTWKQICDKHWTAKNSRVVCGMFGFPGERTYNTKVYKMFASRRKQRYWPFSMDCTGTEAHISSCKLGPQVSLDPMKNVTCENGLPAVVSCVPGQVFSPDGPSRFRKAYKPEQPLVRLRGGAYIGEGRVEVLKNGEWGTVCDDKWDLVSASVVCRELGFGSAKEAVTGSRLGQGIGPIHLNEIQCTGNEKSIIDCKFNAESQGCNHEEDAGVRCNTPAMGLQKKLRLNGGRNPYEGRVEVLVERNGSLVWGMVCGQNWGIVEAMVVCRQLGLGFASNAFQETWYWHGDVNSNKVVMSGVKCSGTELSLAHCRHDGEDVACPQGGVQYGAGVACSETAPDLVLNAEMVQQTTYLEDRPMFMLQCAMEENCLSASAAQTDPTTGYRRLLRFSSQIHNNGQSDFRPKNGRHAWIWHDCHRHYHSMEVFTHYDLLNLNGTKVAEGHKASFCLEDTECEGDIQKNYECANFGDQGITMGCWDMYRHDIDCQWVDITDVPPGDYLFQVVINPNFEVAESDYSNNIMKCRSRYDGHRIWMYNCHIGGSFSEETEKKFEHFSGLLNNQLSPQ
The data set can be described thus: In vitro crosslinking assay. It is filed as biochemical. Also on record: purchased R&D Systems. To be noted: 200 nmol/L PXS-5153A, 20 nmol/L rhLOXL2 daily for 5 days, crosslinks on day 7. Here is the method: About 200 μL of 3 mg/mL collagen (rat tail, type I, Thermo Fisher) was combined with 800 μL of 50 mmol/L sodium borate buffer (pH 8.2) and 20 nmol/L of rhLOXL2 (with or without inhibitor, PXS‐5153A 200 nmol/L). Enzyme/inhibitor were replenished daily for 5 days. Samples were incubated at 37°C and crosslinks were extracted on day 7.
About 10mg of freeze‐dried samples were reduced with NaBH4. Pellet then underwent acid hydrolysis in 6 mol/L HCl at 100°C for 24 hours. Hydroxyproline and crosslinks were extracted from the hydrolysate using an automated solid phase extraction system (Gilson GX‐271 ASPECA system). After extraction and drying, hydroxyproline and crosslinks were analysed by UHPLC‐ESI‐MS/MS on a Thermo Dionex UHPLC and TSQ Endura triple quad mass spectrometer. Total protein was quantified in the samples using a commercially available kit (QuickZyme Biosciences, Leiden, The Netherlands). For detailed procedures, see supporting information.

The target of data set [10] is MAO-B (Homo sapiens, UniProt P27338). The data set can be described thus: MAO-B enzymatic activity assay. The data set is classed as biochemical. Here is the method:
as §1
Recombinant human semicarbazide sensitive amine oxidase (SSAO/VAP1), diamine oxidase (DAO) and monoamine oxidases A and B (MAO-A and MAO-B) assays were performed as previously described.

The subject of data set [11] is Phorbol Ester. The data set can be described thus: Eurofins Hit Profiling Screen. The conditions noted are these: 10 μmol/L. It is filed as binding.

T2 sequence (Q08397 96-574): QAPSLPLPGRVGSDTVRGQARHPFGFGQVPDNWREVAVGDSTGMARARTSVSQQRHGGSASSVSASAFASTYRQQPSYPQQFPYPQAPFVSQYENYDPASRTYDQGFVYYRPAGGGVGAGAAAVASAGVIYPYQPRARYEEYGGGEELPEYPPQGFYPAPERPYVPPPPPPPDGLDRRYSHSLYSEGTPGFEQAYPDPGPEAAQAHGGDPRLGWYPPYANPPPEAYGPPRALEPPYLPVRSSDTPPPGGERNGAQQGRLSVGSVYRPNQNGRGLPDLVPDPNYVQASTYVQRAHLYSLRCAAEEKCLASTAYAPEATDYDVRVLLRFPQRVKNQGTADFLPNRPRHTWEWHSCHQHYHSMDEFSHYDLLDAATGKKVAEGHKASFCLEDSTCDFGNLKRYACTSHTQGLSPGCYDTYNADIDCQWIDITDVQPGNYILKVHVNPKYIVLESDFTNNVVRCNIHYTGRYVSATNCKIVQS
Adrenergic α1B, sequence (P15823 whole entry): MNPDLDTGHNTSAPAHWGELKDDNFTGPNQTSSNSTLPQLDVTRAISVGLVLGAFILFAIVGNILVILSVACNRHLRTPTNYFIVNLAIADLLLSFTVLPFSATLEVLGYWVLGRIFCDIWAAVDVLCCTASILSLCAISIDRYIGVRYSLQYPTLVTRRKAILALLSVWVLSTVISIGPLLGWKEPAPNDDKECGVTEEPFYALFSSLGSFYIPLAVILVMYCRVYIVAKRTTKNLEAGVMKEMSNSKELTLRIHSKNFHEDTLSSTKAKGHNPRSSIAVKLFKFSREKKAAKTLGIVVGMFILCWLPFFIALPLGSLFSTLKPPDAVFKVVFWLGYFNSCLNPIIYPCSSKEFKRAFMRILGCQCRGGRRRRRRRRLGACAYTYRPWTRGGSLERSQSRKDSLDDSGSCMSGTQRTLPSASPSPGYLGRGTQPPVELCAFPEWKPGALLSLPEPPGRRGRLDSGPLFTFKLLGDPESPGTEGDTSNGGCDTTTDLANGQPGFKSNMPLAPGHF
MAO-B, sequence (P27338 whole entry): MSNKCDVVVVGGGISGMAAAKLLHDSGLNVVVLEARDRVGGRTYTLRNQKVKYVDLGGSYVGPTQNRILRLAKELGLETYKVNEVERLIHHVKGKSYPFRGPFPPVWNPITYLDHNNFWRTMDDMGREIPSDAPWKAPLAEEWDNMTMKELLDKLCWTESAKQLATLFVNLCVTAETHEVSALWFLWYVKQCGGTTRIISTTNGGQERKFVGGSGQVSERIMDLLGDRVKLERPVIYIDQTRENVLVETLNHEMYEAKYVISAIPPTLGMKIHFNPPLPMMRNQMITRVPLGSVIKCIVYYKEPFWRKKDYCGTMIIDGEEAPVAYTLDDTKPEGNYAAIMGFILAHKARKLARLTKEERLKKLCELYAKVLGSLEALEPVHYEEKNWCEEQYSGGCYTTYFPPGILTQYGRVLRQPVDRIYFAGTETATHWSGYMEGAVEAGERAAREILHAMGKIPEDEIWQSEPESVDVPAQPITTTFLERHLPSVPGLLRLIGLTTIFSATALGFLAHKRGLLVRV

`Cc1c(-c2cccc(S(=O)(=O)N(C)C)c2)c2ncccc2n1C/C(F)=C/CN.Cl.Cl` [PXS-5153A]: the “% inhibition” value in data set [1] came out at 3%; in data set [2] it was 47%; in [3] it was 17%; in [5], 6%; in data set [7] it was 58%; in data set [8], 28%. In addition, the “% inhibition” value in data set [11] worked out at 2%. Also, the IC50 in data set [4] was 15 nM; in data set [6], 1410 nM; in data set [10], over 30000 nM. In addition, the “pIC50 ± SD” value is given as 7.8 ± 0 in data set [4] and 5.8 ± 0.23 in data set [6]. Moreover, the “crosslink formation DHLNL, HLNL, PYD, DPD” value in data set [9] is “prevented all crosslink formation”.
